The values that follow come from ChEMBL document CHEMBL1157961, “Nitrogen-containing phorbol esters from Croton ciliatoglandulifer and their effects on cyclooxygenases-1 and -2” (J Nat Prod, 2006).

The term pIC50 denotes the IC50 on a negative log10 scale, so that one unit is a factor of ten.

Test [1] concerns the target T1, Prostaglandin G/H synthase 1 (Ovis aries, UniProt P05979).
T1 sequence (P05979 whole entry): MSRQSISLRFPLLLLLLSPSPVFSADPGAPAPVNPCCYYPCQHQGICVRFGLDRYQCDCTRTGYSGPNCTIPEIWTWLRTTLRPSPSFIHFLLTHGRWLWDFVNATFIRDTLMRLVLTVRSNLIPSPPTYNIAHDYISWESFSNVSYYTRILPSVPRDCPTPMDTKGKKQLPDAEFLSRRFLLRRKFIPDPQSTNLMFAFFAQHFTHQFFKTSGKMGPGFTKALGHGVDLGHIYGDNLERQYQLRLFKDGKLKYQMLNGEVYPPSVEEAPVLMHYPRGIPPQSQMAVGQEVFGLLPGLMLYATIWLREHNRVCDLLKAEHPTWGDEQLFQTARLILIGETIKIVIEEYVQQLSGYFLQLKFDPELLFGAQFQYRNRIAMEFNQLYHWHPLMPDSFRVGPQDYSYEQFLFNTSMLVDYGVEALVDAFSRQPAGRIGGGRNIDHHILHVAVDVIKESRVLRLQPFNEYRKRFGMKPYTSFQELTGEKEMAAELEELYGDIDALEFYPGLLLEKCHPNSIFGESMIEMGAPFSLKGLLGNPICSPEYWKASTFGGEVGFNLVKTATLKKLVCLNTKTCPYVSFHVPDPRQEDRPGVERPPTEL
The test can be described thus: Inhibition of ovine COX1.

For test [2], the target named is T2, Prostaglandin G/H synthase 2 (Homo sapiens, UniProt P35354).
T2 sequence (P35354 whole entry): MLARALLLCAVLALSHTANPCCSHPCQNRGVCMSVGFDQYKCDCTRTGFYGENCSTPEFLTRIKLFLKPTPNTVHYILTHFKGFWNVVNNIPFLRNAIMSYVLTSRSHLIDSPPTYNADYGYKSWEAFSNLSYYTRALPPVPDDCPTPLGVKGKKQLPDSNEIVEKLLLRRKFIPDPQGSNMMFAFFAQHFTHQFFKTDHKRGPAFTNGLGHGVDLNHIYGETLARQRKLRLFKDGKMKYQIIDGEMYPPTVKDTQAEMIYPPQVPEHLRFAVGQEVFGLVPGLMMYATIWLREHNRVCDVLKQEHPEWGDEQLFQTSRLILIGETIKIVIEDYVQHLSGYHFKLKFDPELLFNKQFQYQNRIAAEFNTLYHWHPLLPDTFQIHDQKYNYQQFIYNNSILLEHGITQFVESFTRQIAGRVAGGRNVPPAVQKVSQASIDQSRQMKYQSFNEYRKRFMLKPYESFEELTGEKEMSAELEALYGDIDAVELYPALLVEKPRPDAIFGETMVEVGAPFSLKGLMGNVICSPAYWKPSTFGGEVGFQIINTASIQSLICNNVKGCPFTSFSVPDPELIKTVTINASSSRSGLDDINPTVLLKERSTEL
The test can be described thus: Inhibition of human recombinant COX2.

pIC50: −log10 of the molar value.

On to `CC(=O)O[C@@]12[C@H](OC(=O)[C@H](C(C)C)N(C)C)[C@@H](C)[C@]3(O)[C@@H]4C=C(C)C(=O)[C@@H]4CC(CO)=C[C@H]3[C@@H]1C2(C)C`, for which the pIC50 in test [1] and in test [2] was under 4.00 in each case.

For `CC(=O)O[C@@]12[C@H](OC(=O)[C@@H](C(C)C)N(C)C)[C@@H](C)[C@]3(O)[C@@H]4C=C(C)C(=O)[C@@H]4CC(CO)=C[C@H]3[C@@H]1C2(C)C`, the pIC50 was 9.00 in test [1] and 5.66 in test [2].

With `CC(=O)O[C@@]12[C@H](OC(=O)C(=C(C)C)N(C)C)[C@@H](C)[C@]3(O)[C@@H]4C=C(C)C(=O)[C@@H]4CC(CO)=C[C@H]3[C@@H]1C2(C)C`, the pIC50 in test [2] is under 4.00.

For the molecule `CC(=O)O[C@@]12[C@H](OC(=O)[C@@H](C(C)C)N(C)C)[C@@H](C)[C@@]3(O)[C@@H](C=C(CO)C[C@@]4(O)C(=O)C(C)=C[C@@H]34)[C@@H]1C2(C)C`, the pIC50 was 9.00 in test [1] and 5.66 in test [2].
